Laboratory results reported in patent US20260070945A1, “MACROCYCLIC IMMUNOMODULATORS” (Bristol-Myers Squibb Company, priority 2022, published 2026).
Where a SMILES comes first, the peptide text is derived from it. Bridges are numbered along the chain shown (N, C = ends). [ ]: non-standard residue; d: D form. The star is where a group is joined. X15 = NCCCC[C@H](NC(=O)CNCCNCCN*)C(=O)NCCCCCCCCCCC(=O)O; X3 = NCCC[C@H](NC(=O)CNCCNCCN*)C(=O)NCCCCCCCCCCC(=O)O; X4 = NCC[C@H](NC(=O)CNCCNCCN*)C(=O)NCCCCCCCCCCC(=O)O; Bip = N[C@@H](Cc1ccc(-c2ccccc2)cc1)C(=O)O; Phe(3-Me) = Cc1cccc(C[C@H](N)C(=O)O)c1; Carboxymethyl = O=C(O)C*; NMeA = CN[C@@H](C)C(=O)O; Aun = NCCCCCCCCCCC(=O)O; Dap = NC[C@H](N)C(=O)O

target: T1, PD-1/PD-L1 interaction (PE-labeled human PD-L1-Ig binding to Jurkat cell line over-expressing human PD-1) (Homo sapiens, UniProt Q15116); experiment: Jurkat-PD-1 Cell Binding High-Content Screening Assay (CBA); settings: Jurkat-hPD-1 cells, PE-labeled PD-L1-Ig 20 nM final; read-out: Jurkat HPD1 PDL1 IC50
T1 construct: expressed in transfected cells; host or cells: Jurkat
Procedure, shortened: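 High-content imaging read-out of PE-PD-L1-Ig binding (20 nM final, 1 h) to Jurkat-hPD-1 cells, after 2 h compound exposure at 37 °C in DMEM with 10% FCS. Nuclei counterstained with Hoechst 33342 after paraformaldehyde fixation.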

T1 sequence (Q15116 25-288): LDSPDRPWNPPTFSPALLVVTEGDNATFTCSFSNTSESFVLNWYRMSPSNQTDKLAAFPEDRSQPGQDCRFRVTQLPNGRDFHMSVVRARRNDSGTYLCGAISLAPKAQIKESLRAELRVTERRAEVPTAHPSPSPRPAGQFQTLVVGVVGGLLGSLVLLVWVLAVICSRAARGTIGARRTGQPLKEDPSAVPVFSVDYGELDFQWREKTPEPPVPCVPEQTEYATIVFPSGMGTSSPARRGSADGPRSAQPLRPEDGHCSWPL

| Compound | IC50 |
| --- | --- |
| Cc1cccc(C[C@@H]2NC(=O)[C@H](CC(=O)O)NC(=O)[C@H](Cc3ccc(OCC(=O)O)cc3)NC(=O)[C@H](CN)NC(=O)CSC[C@@H](C(=O)NCCNCCNCC(=O)N[C@@H](CCN)C(=O)NCCCCCCCCCCC(=O)O)NC(=O)[C@H](CO)NC(=O)[C@H](C(C)C)NC(=O)[C@H](CC(C)C)NC(=O)[C@H](CC(N)=O)NC(=O)[C@@H](CC(C)C)NC(=O)[C@H](C)N(C)C(=O)[C@H](C(C)C)NC(=O)[C@H](Cc3ccc(-c4ccccc4)cc3)NC(=O)[C@H](CC(C)C)NC2=O)c1 [Example 1063] ({CH2CO}-[Dap]Y(Carboxymethyl)D[Phe(3-Me)]L[Bip]V[NMeA][dL]NLVSC-X4; thioether N-14) | 27.9 nM |
| Cc1cccc(C[C@@H]2NC(=O)[C@H](CC(=O)O)NC(=O)[C@H](Cc3ccc(OCC(=O)O)cc3)NC(=O)[C@H](CN)NC(=O)CSC[C@@H](C(=O)NCCNCCNCC(=O)N[C@@H](CCCN)C(=O)NCCCCCCCCCCC(=O)O)NC(=O)[C@H](CO)NC(=O)[C@H](C(C)C)NC(=O)[C@H](CC(C)C)NC(=O)[C@H](CC(N)=O)NC(=O)[C@@H](CC(C)C)NC(=O)[C@H](C)N(C)C(=O)[C@H](C(C)C)NC(=O)[C@H](Cc3ccc(-c4ccccc4)cc3)NC(=O)[C@H](CC(C)C)NC2=O)c1 [Example 1064] ({CH2CO}-[Dap]Y(Carboxymethyl)D[Phe(3-Me)]L[Bip]V[NMeA][dL]NLVSC-X3; thioether N-14) | 23.6 nM |
| Cc1cccc(C[C@@H]2NC(=O)[C@H](CC(=O)O)NC(=O)[C@H](Cc3ccc(OCC(=O)O)cc3)NC(=O)[C@H](CN)NC(=O)CSC[C@@H](C(=O)NCCNCCNCC(=O)N[C@@H](CCCCN)C(=O)NCCCCCCCCCCC(=O)O)NC(=O)[C@H](CO)NC(=O)[C@H](C(C)C)NC(=O)[C@H](CC(C)C)NC(=O)[C@H](CC(N)=O)NC(=O)[C@@H](CC(C)C)NC(=O)[C@H](C)N(C)C(=O)[C@H](C(C)C)NC(=O)[C@H](Cc3ccc(-c4ccccc4)cc3)NC(=O)[C@H](CC(C)C)NC2=O)c1 [Example 1065] ({CH2CO}-[Dap]Y(Carboxymethyl)D[Phe(3-Me)]L[Bip]V[NMeA][dL]NLVSC-X15; thioether N-14) | 32.4 nM |

Further lines, results first:

| IC50 | Compound |
| --- | --- |
| 106 nM | Cc1cccc(C[C@@H]2NC(=O)[C@H](CC(=O)O)NC(=O)[C@H](Cc3ccc(OCC(=O)O)cc3)NC(=O)[C@H](CN)NC(=O)CSC[C@@H](C(=O)N[C@@H](CC(=O)O)C(=O)NCCCCCCCCCCC(=O)O)NC(=O)[C@H](CO)NC(=O)[C@H](C(C)C)NC(=O)[C@H](CC(C)C)NC(=O)[C@H](CC(N)=O)NC(=O)[C@@H](CC(C)C)NC(=O)[C@H](C)N(C)C(=O)[C@H](C(C)C)NC(=O)[C@H](Cc3ccc(-c4ccccc4)cc3)NC(=O)[C@H](CC(C)C)NC2=O)c1 [Example 1067] ({CH2CO}-[Dap]Y(Carboxymethyl)D[Phe(3-Me)]L[Bip]V[NMeA][dL]NLVSCD[Aun]-OH; thioether N-14) |
| 172 nM | Cc1cccc(C[C@@H]2NC(=O)[C@H](CC(=O)O)NC(=O)[C@H](Cc3ccc(OCC(=O)O)cc3)NC(=O)[C@H](CN)NC(=O)CSC[C@@H](C(=O)N[C@@H](CCC(=O)O)C(=O)NCCCCCCCCCCC(=O)O)NC(=O)[C@H](CO)NC(=O)[C@H](C(C)C)NC(=O)[C@H](CC(C)C)NC(=O)[C@H](CC(N)=O)NC(=O)[C@@H](CC(C)C)NC(=O)[C@H](C)N(C)C(=O)[C@H](C(C)C)NC(=O)[C@H](Cc3ccc(-c4ccccc4)cc3)NC(=O)[C@H](CC(C)C)NC2=O)c1 [Example 1068] ({CH2CO}-[Dap]Y(Carboxymethyl)D[Phe(3-Me)]L[Bip]V[NMeA][dL]NLVSCE[Aun]-OH; thioether N-14) |
